# Legend:
# MDA-MB-468 = test: Antiproliferative activity against human MDA-MB-468 cells assessed as inhibition of cell growth incubated for 7 days by MTT assay; assay type: functional, cell-based; conditions: MDA-MB-468, 168 h
# [1] = Cytotoxicity against mouse AML12 cells assessed as reduction in cell viability incubated for 7 days by MTT assay; assay type: toxicity, cell-based; conditions: time 7 day
# HCT-116 [2] = test: Induction of apoptosis in human HCT-116 cells assessed as late apoptotic cells at 5 uM incubated for 3 days by annexinV-FITC/propidium iodide staining based flow cytometry (reference value: 8.71 %); assay type: functional; conditions: time 3 day
# HCT-116 [3] = test: Induction of apoptosis in human HCT-116 cells assessed as necrotic cells at 5 uM incubated for 3 days by annexinV-FITC/propidium iodide staining based flow cytometry (reference value: 3.65 %); assay type: functional; conditions: time 3 day
# HCT-116 [4] = test: Induction of apoptosis in human HCT-116 cells assessed as early apoptotic cells at 1 uM incubated for 3 days by annexinV-FITC/propidium iodide staining based flow cytometry (reference value: 7.67 %); assay type: functional; conditions: time 3 day
# HCT-116 [5] = test: Induction of cell cycle arrest in human HCT-116 cells assessed as G0/G1 phase cells at 5 uM incubated for 3 days by propidium iodide staining based flow cytometry (reference value: 68.35 %); assay type: functional; conditions: time 3 day
# HCT-116 [6] = test: Induction of cell cycle arrest in human HCT-116 cells assessed as G0/G1 phase cells at 1 uM incubated for 3 days by propidium iodide staining based flow cytometry (reference value: 68.35 %); assay type: functional; conditions: time 3 day
# [7] = molecular target: Poly [ADP-ribose] polymerase 2 (Homo sapiens, UniProt Q9UGN5); test: Inhibition of PAPR-2 (unknown origin)
# [8] = molecular target: T1, Protein mono-ADP-ribosyltransferase PARP10 (Homo sapiens, UniProt Q53GL7); test: Inhibition of PARP-10 (unknown origin)
# T1 sequence (Q53GL7 whole entry): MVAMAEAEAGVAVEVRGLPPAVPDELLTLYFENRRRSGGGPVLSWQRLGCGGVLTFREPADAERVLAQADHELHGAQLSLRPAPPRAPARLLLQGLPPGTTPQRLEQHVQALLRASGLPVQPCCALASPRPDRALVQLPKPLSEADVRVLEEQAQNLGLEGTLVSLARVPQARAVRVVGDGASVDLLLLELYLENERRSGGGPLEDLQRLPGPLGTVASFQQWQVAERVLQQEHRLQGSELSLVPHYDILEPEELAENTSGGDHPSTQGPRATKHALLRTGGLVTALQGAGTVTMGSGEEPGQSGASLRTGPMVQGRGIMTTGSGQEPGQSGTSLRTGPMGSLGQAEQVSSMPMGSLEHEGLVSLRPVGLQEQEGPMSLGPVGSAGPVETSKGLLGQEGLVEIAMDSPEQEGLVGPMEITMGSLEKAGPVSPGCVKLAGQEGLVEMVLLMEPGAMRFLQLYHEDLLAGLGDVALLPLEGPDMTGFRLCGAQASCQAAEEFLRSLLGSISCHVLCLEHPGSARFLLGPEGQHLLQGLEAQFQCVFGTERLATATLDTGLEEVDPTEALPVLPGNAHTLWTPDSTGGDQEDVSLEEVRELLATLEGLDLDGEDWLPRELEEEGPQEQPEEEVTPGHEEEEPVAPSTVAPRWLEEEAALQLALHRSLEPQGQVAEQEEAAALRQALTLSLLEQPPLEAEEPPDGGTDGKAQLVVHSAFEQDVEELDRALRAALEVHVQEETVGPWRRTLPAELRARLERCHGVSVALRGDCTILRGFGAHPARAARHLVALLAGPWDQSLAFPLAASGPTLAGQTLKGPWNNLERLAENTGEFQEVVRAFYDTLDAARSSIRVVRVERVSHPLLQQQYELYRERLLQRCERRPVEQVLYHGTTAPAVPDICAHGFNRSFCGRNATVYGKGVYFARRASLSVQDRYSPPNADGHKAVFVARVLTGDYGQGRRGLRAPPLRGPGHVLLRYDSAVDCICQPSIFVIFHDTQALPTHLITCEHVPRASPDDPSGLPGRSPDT
# [9] = molecular target: Protein mono-ADP-ribosyltransferase PARP14 (Homo sapiens, UniProt Q460N5); test: Inhibition of PARP-14 (unknown origin)
# [10] = Toxicity in […] assessed as rat death administered as single dose at 500 mg/kg, ip; assay type: organism-based; conditions: in vivo
# [11] = Toxicity in […] assessed as effect on body weight at 500 mg/kg, ip administered as single dose and measured on day 7 (reference value: 26.00 +/- 3.16 g); assay type: organism-based; conditions: in vivo
# [12] = Toxicity in […] assessed as morphological changes in ileum at 500 mg/kg, ip by H&E staining based histopathological analysis; assay type: organism-based; conditions: in vivo
# [13] = Toxicity in […] assessed as morphological changes in colon at 500 mg/kg, ip by H&E staining based histopathological analysis; assay type: organism-based; conditions: in vivo
# [14] = Toxicity in BALB/c nude mouse xenografted with human HCT116 cells at 25 to 100 mg/kg, ip administered once daily for 28 days; assay type: organism-based, HCT-116; conditions: in vivo, 672 h, dose 25-100 mg/kg, time 28 day
# [15] = Toxicity in BALB/c nude mouse xenografted with human HCT116 cells assessed as side effects at 25 to 100 mg/kg, ip administered once daily for 28 days; assay type: organism-based, HCT-116; conditions: in vivo, 672 h, dose 25-100 mg/kg, time 28 day
# Sequence of Protein mono-ADP-ribosyltransferase PARP14 (Q460N5 whole entry): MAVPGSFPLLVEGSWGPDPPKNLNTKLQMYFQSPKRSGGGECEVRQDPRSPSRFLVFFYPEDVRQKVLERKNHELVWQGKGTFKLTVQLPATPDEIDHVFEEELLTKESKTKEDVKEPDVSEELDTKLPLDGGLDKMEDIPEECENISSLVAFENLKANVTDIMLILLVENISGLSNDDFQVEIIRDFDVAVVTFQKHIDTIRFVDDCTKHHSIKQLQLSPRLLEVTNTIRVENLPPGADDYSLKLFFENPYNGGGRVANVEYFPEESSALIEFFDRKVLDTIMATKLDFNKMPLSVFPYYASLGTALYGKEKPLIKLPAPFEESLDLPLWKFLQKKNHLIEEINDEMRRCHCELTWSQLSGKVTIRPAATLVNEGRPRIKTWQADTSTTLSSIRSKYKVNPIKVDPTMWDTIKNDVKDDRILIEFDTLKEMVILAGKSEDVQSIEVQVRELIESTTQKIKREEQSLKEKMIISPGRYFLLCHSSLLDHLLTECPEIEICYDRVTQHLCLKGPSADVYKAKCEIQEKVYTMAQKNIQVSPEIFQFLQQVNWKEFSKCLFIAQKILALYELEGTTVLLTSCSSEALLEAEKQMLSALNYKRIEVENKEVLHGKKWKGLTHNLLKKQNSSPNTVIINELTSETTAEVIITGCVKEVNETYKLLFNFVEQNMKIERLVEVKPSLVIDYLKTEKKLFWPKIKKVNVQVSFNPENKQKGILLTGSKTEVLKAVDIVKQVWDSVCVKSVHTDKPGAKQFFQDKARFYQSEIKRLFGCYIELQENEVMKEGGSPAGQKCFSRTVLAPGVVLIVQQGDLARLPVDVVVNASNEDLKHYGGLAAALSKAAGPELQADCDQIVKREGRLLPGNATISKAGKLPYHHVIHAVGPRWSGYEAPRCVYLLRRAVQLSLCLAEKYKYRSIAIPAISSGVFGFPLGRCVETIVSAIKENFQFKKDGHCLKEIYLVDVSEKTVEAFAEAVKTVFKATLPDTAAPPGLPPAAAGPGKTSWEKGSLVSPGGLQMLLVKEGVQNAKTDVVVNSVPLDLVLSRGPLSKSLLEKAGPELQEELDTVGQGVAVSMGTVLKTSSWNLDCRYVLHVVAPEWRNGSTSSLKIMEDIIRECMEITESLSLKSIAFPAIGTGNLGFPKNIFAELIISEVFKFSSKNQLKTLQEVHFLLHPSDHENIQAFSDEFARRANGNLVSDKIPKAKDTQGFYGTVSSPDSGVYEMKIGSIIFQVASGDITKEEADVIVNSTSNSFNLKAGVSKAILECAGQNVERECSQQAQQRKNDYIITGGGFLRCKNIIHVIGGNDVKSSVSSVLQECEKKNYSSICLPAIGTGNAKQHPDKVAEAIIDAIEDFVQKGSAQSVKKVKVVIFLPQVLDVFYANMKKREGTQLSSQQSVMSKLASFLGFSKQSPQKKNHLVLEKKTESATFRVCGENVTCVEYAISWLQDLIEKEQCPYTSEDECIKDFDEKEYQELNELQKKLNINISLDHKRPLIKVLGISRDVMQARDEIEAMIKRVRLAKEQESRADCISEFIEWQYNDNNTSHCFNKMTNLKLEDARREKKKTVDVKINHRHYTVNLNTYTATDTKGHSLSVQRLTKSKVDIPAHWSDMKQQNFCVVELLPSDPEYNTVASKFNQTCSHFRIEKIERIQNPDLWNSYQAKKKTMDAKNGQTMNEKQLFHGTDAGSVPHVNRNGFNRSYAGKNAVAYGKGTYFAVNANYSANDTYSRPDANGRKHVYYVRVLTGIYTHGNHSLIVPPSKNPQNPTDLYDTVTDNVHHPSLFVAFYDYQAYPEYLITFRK
# Sequence of Poly [ADP-ribose] polymerase 2 (Q9UGN5 whole entry): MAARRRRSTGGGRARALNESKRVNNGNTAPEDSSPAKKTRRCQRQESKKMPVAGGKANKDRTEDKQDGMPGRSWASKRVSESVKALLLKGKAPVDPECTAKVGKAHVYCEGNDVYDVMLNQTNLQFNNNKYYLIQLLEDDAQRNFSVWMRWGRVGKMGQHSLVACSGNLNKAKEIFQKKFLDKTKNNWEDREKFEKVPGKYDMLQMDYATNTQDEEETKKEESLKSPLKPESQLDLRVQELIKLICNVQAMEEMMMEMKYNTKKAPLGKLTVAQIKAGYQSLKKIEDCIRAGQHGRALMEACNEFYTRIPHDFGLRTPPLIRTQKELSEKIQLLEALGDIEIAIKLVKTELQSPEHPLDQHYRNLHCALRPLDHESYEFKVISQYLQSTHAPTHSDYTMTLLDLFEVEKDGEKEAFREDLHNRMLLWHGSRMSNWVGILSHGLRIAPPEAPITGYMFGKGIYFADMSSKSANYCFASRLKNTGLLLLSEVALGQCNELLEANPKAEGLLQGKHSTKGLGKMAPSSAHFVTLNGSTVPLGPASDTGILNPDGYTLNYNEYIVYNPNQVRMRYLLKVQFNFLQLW
smiles,measurement,setting,value
COc1ccc(NC(=O)c2ccc(NC(=O)N3CCN(C(=O)c4cc(Cc5n[nH]c(=O)c6ccccc56)ccc4F)CC3)cc2)cc1,IC50,MDA-MB-468,0.09 µM
same,CC50 at 168 h,[1],117 µM
same,Activity,HCT-116 [2],39.5%
same,Activity,HCT-116 [3],8.56%
same,Activity,HCT-116 [4],6.86%
same,Activity,HCT-116 [5],41.21%
same,Activity,HCT-116 [6],59.2%
same,IC50,[7],0.0012 µM
same,IC50,[8],0.14 µM
same,IC50,[9],1.37 µM
same,Activity,[10],Non-Toxic
same,Activity,[11],24.25 g
same,Activity,[12],Non-Toxic
same,Activity,[13],Non-Toxic
same,Activity,[14],Non-Toxic
same,Activity,[15],Non-Toxic
